Test results taken from patent publication US20260242349A1, “N,N'-SULFONIMIDAMIDES AS ANTICANCER, ANTIINFLAMMATORY, ANTIFIBROTIC AND NEUROPROTECTIVE AGENTS” (Atux Iskay LLC, priority 2023, published 2026).

Test system: D425 medulloblastoma cells
Test: Cancer cell viability inhibition (CellTiter-Glo Luminescent Cell Viability Assay)
Assay type: cell-based
Settings: 48 hours treatment, CellTiter-Glo luminescence, test range 1-30 uM, read-out: IC50 for D425 cell growth
Method: D425 medulloblastoma cells were purchased from SigmaAldrich. D425 meduloblastoma cells were cultured in improved Dulbecco's modified Eagle's medium (DMEM) Richter's modification supplemented with 20% fetal bovine serum and 1% Penicillin-streptomycin. Incubation was performed at 37° C. and 5% CO2.
D425 cells were seeded at 3000-3500 cells/90 ul growth medium per well on 96-well tissue culture plates. Cells were incubated overnight to allow them to recover. Next day cells were treated with tested compounds and incubated for 48 hours.
Cell Proliferation assays in triplicate were performed at each concentration. Compounds test range was 1-30 uM (0, 5, 10, 15, 20, 25, and 30). The compounds were dissolved in DMSO. […]
After treatment, cells were allowed to equilibrate at room temperature for one hour. Cell proliferation was measured by Luminescence quantification using Promega CellTiter-Glo Luminescent Cell Viability Assay. […] Luminescence intensity was measured using the Spectramax i3× plate reader.
The Luminescence intensity data were analyzed using the computer software Graphpad Prism. In the absence of the compound, the luminescence intensity (Lt) in each data set was defined as 100% cell viability. The percent cell in the presence of each compound was calculated according to the following equation: % Cell=L/Lt, were L=the luminescence intensity in the presence of the compound. […]

- IC50: 9.4 µM
Compound: N=S(=O)(Nc1ccc(OC(F)(F)F)cc1)N1CCCC(C2c3ccccc3CCc3ccccc32)C1 (stereo not shown) [Example 2]
